≈ marks a conversion by molar mass, not a printed value.
Legend:
[1] = test system: K. pneomoniae S48 (NDM, SHV, TEM); experiment: Antibacterial activity, MIC by agar dilution (CLSI); type: cell-based, K. pneumoniae; conditions: Klebsiella pneumoniae; Table 2; K. pneomoniae S48 (NDM, SHV, TEM); read-out: MIC
Description: (§1) The biological activity of representative compounds according to the invention against various bacterial strains was investigated. In a typical study, overnight grown bacterial cultures were diluted appropriately and inoculated on the agar media containing doubling dilutions of the test compounds. Observations for growth or no growth was performed after 16-20 hours of incubation at 35±2° C. in the ambient air. The overall procedure was performed as per Clinical and Laboratory Standards Institute (CLSI) recommendations, (Clinical and Laboratory Standards Institute (CLSI), Performance Standards for Antimicrobial Susceptibility Testing, 20th Informational Supplement, M07-A9, Volume 32, No. 2, 2012). Molten Mueller Hinton Agar (BD, USA) containing serial dilutions of each antibacterial agent were poured on to the plates and allowed to solidify. Appropriate suspensions from the freshly grown cultures were prepared in normal saline so that about 10^4 CFU/spot of the organism was delivered on to the drug containing agar plates using automated multipoint inoculator (Mast, UK). The plates were incubated in Biochemical oxygen demand (BOD) incubator at 37° C. for 18 hours and then examined for growth.
(§2) The strains selected for study included E. coli NCTC 13353 producing CTX-M15 and OXA-1 beta-lactamase enzymes; K. pneumoniae H521 producing KPC, SHV, TEM beta-lactamase enzymes; and K. pneumoniae S48 producing NDM, SHV, TEM beta-lactamase enzymes. The activities are expressed as Minimum Inhibitory Concentrations (MICs) (mcg/ml).

[2] = biological target: T1, Class A beta-lactamase, K. pneumoniae ATCC 700603 (SHV 18) (Klebsiella pneumoniae, UniProt P0AD64, E235K/G234A/R39S); experiment: biochemical
T1 construct: preincubated mixture of crude enzyme and the agents; endogenous in cells; host or cells: K. pneumoniae ATCC 700603
Description: (§3) Determination of enzyme inhibition activity: Concentration of the inhibitor required to inhibit 50% of enzymatic activity was measured by adding a chromogenic substrate, Nitrocefin (100 uM, 5 min) to the preincubated mixture of crude enzyme and the agents (37° C., 10 min). Absorbance was measured at 485 nm by UV-spectrophotometer. The IC50 was calculated by plotting absorbance against concentration through Sigmoidal dose response curve using Graph Pad software.
(§4) The enzyme inhibition was expressed as IC50.

[3] = biological target: T2, Class D beta-lactamase, A. baumannii NCTC 13301 (OXA 23) (Acinetobacter baumannii, UniProt Q9L4P2); experiment: Beta-lactamase enzyme inhibition (nitrocefin, crude enzyme); type: biochemical; conditions: Class D A. baumannii NCTC 13301 (OXA 23); read-out: Beta-lactamase enzyme inhibition IC50
T2 construct: preincubated mixture of crude enzyme and the agents; endogenous in cells; host or cells: A. baumannii NCTC 13301
Description: as §3, §4

[4] = test system: E. coli NCTC 13353 (CTX-M15, OXA-1); experiment: Antibacterial activity, MIC by agar dilution (CLSI); type: cell-based; conditions: Escherichia coli, NCTC13353, Table 2; E. Coli NCTC 13353 (CTX-M15, OXA-1); read-out: MIC
Description: as §1
as §2, with “Table 2 details the antibacterial activity of representative compounds according to invention, against various Multi Drug Resistant (MDR) Gram-negative bacterial strains. The strains” for “The strains”

[5] = test system: T3, Class C beta-lactamase, E. coli M50 (CMY/DHA); type: biochemical; conditions: read-out: Beta-lactamase enzyme inhibition IC50
T3 construct: no borders, tags or purification printed
Description: as §3, §4

[6] = test system: K. pneumoniae H521 (KPC, SHV, TEM); experiment: Antibacterial activity, MIC by agar dilution (CLSI); type: cell-based; conditions: Klebsiella pneumoniae, Table 2; K. pneumoniae H521 (KPC, SHV, TEM); read-out: MIC
Description: as §1, §2

T1 sequence (P0AD64 22-286 R39S/G234A/E235K): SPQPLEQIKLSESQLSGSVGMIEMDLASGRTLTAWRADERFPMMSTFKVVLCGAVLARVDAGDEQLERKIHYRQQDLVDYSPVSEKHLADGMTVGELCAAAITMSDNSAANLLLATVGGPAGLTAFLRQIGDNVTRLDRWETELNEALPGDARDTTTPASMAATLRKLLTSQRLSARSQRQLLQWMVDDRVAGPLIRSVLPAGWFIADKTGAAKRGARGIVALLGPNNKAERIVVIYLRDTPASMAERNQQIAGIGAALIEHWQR
T2 sequence (Q9L4P2 18-273): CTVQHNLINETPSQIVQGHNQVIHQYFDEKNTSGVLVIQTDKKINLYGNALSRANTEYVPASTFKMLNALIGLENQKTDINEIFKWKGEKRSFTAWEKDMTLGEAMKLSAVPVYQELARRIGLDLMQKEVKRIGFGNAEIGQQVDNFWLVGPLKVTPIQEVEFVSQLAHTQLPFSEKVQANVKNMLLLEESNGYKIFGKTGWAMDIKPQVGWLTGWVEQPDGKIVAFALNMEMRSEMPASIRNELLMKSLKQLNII

| SMILES | MIC [1] | IC50 [2] | IC50 [3] | MIC [4] | IC50 [5] | MIC [6] |
| --- | --- | --- | --- | --- | --- | --- |
| C[C@H](N)COc1ccccc1CC(=O)NNC(=O)[C@@H]1CC[C@@H]2CN1C(=O)N2OS(=O)(=O)O [Example 40, (2S,5R)-sulfuric acid mono-[2-(N′-{2-[2-((S)-2-amino-propoxy)-phenyl]-acetyl}-hydrazinocarbonyl)-7-oxo-1,6-diaza-bicyclo[3.2.1]oct-6-yl]ester] | 2 µg/mL (≈ 4.24 µM) | 110 nM | 1570 nM | 2 µg/mL (≈ 4.24 µM) | 99 nM | 2 µg/mL (≈ 4.24 µM) |
| C[C@H](N)COc1cccc(CC(=O)NNC(=O)[C@@H]2CC[C@@H]3CN2C(=O)N3OS(=O)(=O)O)c1 [Example 41, (2S,5R)-sulfuric acid mono-[2-(N′-{2-[3-((S)-2-amino-propoxy)-phenyl]-acetyl}-hydrazinocarbonyl)-7-oxo-1,6-diaza-bicyclo[3.2.1]oct-6-yl]ester] | 0.5 µg/mL (≈ 1.06 µM) | 38 nM | 990 nM | 0.5 µg/mL (≈ 1.06 µM) | 53 nM | 1 µg/mL (≈ 2.12 µM) |
| C[C@@H](N)COc1cccc(CC(=O)NNC(=O)[C@@H]2CC[C@@H]3CN2C(=O)N3OS(=O)(=O)O)c1 [Example 42, (2S,5R)-sulfuric acid mono-[2-(N′-{2-[3-((R)-2-amino-propoxy)-phenyl]-acetyl}-hydrazinocarbonyl)-7-oxo-1,6-diaza-bicyclo[3.2.1]oct-6-yl]ester] | 0.5 µg/mL (≈ 1.06 µM) | 36 nM | 1230 nM | 1 µg/mL (≈ 2.12 µM) | 32 nM | 1 µg/mL (≈ 2.12 µM) |
| C[C@H](N)COc1ccc(CC(=O)NNC(=O)[C@@H]2CC[C@@H]3CN2C(=O)N3OS(=O)(=O)O)cc1 [Example 43, (2S,5R)-sulfuric acid mono-[2-(N′-{2-[4-((S)-2-amino-propoxy)-phenyl]-acetyl}-hydrazinocarbonyl)-7-oxo-1,6-diaza-bicyclo[3.2.1]oct-6-yl]ester] | 0.5 µg/mL (≈ 1.06 µM) | 386 nM | 522 nM | 0.5 µg/mL (≈ 1.06 µM) | 37 nM | 2 µg/mL (≈ 4.24 µM) |
| C[C@H](N)COc1ccc(CC(=O)NNC(=O)[C@@H]2CC[C@@H]3CN2C(=O)N3OS(=O)(=O)O)c(F)c1 [Example 44, (2S,5R)-sulfuric acid mono-[2-(N′-{2-[2-fluoro-4-((S)-2-amino-propoxy)-phenyl]-acetyl}-hydrazinocarbonyl)-7-oxo-1,6-diaza-bicyclo[3.2.1]oct-6-yl]ester] | 1 µg/mL (≈ 2.04 µM) | 58 nM | 561 nM | 1 µg/mL (≈ 2.04 µM) | 31 nM | 2 µg/mL (≈ 4.09 µM) |
| CC(C)[C@@H](N)COc1ccc(CC(=O)NNC(=O)[C@@H]2CC[C@@H]3CN2C(=O)N3OS(=O)(=O)O)c(F)c1 [Example 46, (2S,5R)-sulfuric acid mono-[2-(N′-{2-[2-fluoro-4-((R)-2-amino-3-methyl-butoxy)-phenyl]-acetyl}-hydrazinocarbonyl)-7-oxo-1,6-diaza-bicyclo[3.2.1]oct-6-yl]ester] | 4 µg/mL (≈ 7.73 µM) | 79 nM | 4100 nM | 2 µg/mL (≈ 3.86 µM) | 266 nM | 4 µg/mL (≈ 7.73 µM) |
| O=C(Cc1ccc(O[C@H]2CCNC2)cc1F)NNC(=O)[C@@H]1CC[C@@H]2CN1C(=O)N2OS(=O)(=O)O [Example 47, (2S,5R)-sulfuric acid mono-[2-(N′-{2-[2-fluoro-4-((S)-pyrrolidin-3-oxy)-phenyl]-acetyl}-hydrazinocarbonyl)-7-oxo-1,6-diaza-bicyclo[3.2.1]oct-6-yl]ester] | 0.5 µg/mL (≈ 0.997 µM) | 15.1 nM | 842 nM | 1 µg/mL (≈ 1.99 µM) | 77 nM | 2 µg/mL (≈ 3.99 µM) |
| C[C@@H](N)COc1ccc(CC(=O)NNC(=O)[C@@H]2CC[C@@H]3CN2C(=O)N3OS(=O)(=O)O)cc1 [Example 49, (2S,5R)-sulfuric acid mono-[2-(N′-{2-[4-((R)-2-amino-propoxy)-phenyl]-acetyl}-hydrazinocarbonyl)-7-oxo-1,6-diaza-bicyclo[3.2.1]oct-6-yl]ester] | 0.5 µg/mL (≈ 1.06 µM) | 112 nM | 542 nM | 0.5 µg/mL (≈ 1.06 µM) | 47 nM | 1 µg/mL (≈ 2.12 µM) |
| CC(C)[C@H](N)COc1ccccc1CC(=O)NNC(=O)[C@@H]1CC[C@@H]2CN1C(=O)N2OS(=O)(=O)O [Example 50, (2S,5R)-sulfuric acid mono-[2-(N′-{2-[2-((S)-2-amino-3-methyl-butoxy)-phenyl]-acetyl}-hydrazinocarbonyl)-7-oxo-1,6-diaza-bicyclo[3.2.1]oct-6-yl]ester] | 16 µg/mL (≈ 32 µM) | 79 nM | 1170 nM | 16 µg/mL (≈ 32 µM) | 77 nM | > 32 µg/mL |
| CC(C)[C@H](N)COc1ccc(CC(=O)NNC(=O)[C@@H]2CC[C@@H]3CN2C(=O)N3OS(=O)(=O)O)cc1 [Example 54, (2S,5R)-sulfuric acid mono-[2-(N′-{2-[4-((S)-2-amino-3-methyl-butoxy)-phenyl]-acetyl}-hydrazinocarbonyl)-7-oxo-1,6-diaza-bicyclo[3.2.1]oct-6-yl]ester] | 1 µg/mL (≈ 2 µM) | 37 nM | 625 nM | 1 µg/mL (≈ 2 µM) | 40 nM | 8 µg/mL (≈ 16 µM) |
| O=C(Cc1ccccc1OC[C@@H]1CCCN1)NNC(=O)[C@@H]1CC[C@@H]2CN1C(=O)N2OS(=O)(=O)O [Example 56, (2S,5R)-sulfuric acid mono-[2-(N′-{2-[2-((S)-pyrrolidin-2-ylmethoxy)-phenyl]-acetyl}-hydrazinocarbonyl)-7-oxo-1,6-diaza-bicyclo[3.2.1]oct-6-yl]ester] | 16 µg/mL (≈ 32.2 µM) | 142 nM | 1760 nM | 8 µg/mL (≈ 16.1 µM) | 50 nM | 16 µg/mL (≈ 32.2 µM) |
| O=C(Cc1ccccc1OC[C@H]1CCCN1)NNC(=O)[C@@H]1CC[C@@H]2CN1C(=O)N2OS(=O)(=O)O [Example 57, (2S,5R)-sulfuric acid mono-[2-(N′-{2-[2-((R)-pyrrolidin-2-ylmethoxy)-phenyl]-acetyl}-hydrazinocarbonyl)-7-oxo-1,6-diaza-bicyclo[3.2.1]oct-6-yl]ester] | 2 µg/mL (≈ 4.02 µM) | 125 nM | 3290 nM | 2 µg/mL (≈ 4.02 µM) | 105 nM | 4 µg/mL (≈ 8.04 µM) |
| O=C(Cc1cccc(OC[C@@H]2CCCN2)c1)NNC(=O)[C@@H]1CC[C@@H]2CN1C(=O)N2OS(=O)(=O)O [Example 58, (2S,5R)-sulfuric acid mono-[2-(N′-{2-[3-((S)-pyrrolidin-2-ylmethoxy)-phenyl]-acetyl}-hydrazinocarbonyl)-7-oxo-1,6-diaza-bicyclo[3.2.1]oct-6-yl]ester] | 0.5 µg/mL (≈ 1 µM) | 53 nM | 1470 nM | 1 µg/mL (≈ 2.01 µM) | 37 nM | 2 µg/mL (≈ 4.02 µM) |
| O=C(Cc1cccc(OC[C@@H]2CCNC2)c1)NNC(=O)[C@@H]1CC[C@@H]2CN1C(=O)N2OS(=O)(=O)O [Example 60, (2S,5R)-sulfuric acid mono-[2-(N′-{2-[3-((R)-pyrrolidin-3-ylmethoxy)-phenyl]-acetyl}-hydrazinocarbonyl)-7-oxo-1,6-diaza-bicyclo[3.2.1]oct-6-yl]ester] | 1 µg/mL (≈ 2.01 µM) | 45 nM | 1280 nM | 1 µg/mL (≈ 2.01 µM) | 41 nM | 2 µg/mL (≈ 4.02 µM) |
